Converted amounts (≈) assume the structure as drawn.
What was measured:
[1] = Dissociation constant, pKa of the compound at acidic pH; type: physicochemical
[2] = target: T1, Serine/threonine-protein kinase B-raf (Homo sapiens, UniProt P15056, V600E); test: Inhibition of His6X-tagged human B-raf V600E mutant expressed in baculovirus infected insect cells coexpressing […] using [gamma33P]ATP after 60 mins by scintillation counting
[3] = Thermodynamic solubility of the compound at 0.5 mg/ml after 24 hrs by shake flask method at pH 1.2; type: physicochemical; conditions: buffer, read-out: Therm_solubility
[4] = target: T1, Serine/threonine-protein kinase B-raf; test: Inhibition of B-raf V600E mutant-mediated Erk phosphorylation in human MALM-3M cells by fluorometric analysis; type: cell-based
[5] = AUC in mouse at 30 mg/kg, po dosed in 0.5% methylcellulose/0.2% Tween 80/99.3% water; type: ADME, organism-based; design: dose 30 mg/kg, route oral; conditions: in vivo
[6] = Thermodynamic solubility of the compound at 0.5 mg/ml after 24 hrs by shake flask method at pH 6.5; type: physicochemical; conditions: buffer, read-out: Therm_solubility
[7] = Plasma protein binding in mouse; type: ADME, cell-free; conditions: read-out: PPB (converted)
[8] = Oral bioavailability in mouse at 30 mg/kg; type: ADME, organism-based; conditions: in vivo
[9] = AUC in mouse at 30 mg/kg, po dosed as as solution; type: ADME, organism-based; design: dose 30 mg/kg, route oral; conditions: plasma
[10] = Clearance in mouse at 2.5 mg/kg, iv; type: ADME, organism-based; design: dose 2.5 mg/kg, route intravenous; conditions: in vivo
[11] = Volume of distribution at steady state in mouse at 2.5 mg/kg, iv; type: ADME, organism-based; design: dose 2.5 mg/kg, route intravenous; conditions: in vivo, read-out: Vdss
[12] = Dissociation constant, pKa of the compound at basic pH; type: physicochemical
[13] = Lipophilicity, log P of the compound; type: physicochemical; conditions: octanol/water

T1 sequence (P15056 2-766 V600E limits assumed): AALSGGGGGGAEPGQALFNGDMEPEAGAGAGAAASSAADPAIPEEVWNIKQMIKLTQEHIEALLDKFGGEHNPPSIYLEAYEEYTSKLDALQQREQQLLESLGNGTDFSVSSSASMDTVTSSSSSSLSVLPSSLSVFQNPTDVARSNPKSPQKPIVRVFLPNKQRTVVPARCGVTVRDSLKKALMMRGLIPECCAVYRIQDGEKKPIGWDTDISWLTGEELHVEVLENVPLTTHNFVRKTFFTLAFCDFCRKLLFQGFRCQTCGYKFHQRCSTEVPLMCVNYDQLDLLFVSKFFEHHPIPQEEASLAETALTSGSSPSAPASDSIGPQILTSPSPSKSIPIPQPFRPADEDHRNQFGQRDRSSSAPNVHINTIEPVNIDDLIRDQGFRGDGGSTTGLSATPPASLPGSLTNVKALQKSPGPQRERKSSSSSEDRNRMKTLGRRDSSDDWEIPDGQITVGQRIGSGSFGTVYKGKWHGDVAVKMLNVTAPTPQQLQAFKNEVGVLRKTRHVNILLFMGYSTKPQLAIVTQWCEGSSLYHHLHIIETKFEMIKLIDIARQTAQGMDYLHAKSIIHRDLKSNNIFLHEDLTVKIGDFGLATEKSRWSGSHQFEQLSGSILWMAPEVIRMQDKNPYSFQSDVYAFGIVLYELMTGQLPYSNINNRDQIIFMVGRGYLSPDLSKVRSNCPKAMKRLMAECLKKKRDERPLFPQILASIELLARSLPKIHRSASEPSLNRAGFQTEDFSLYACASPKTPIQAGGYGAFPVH

| Structure (SMILES) | pKa [1] | IC50 [2] [nM] | solubility thermodynamic at 24 h [3] [µg/mL] | EC50 [4] [nM] | IC50 [4] [nM] | AUC [5] [µM·h] | solubility thermodynamic at 24 h [6] [µg/mL] | fraction unbound [7] | bioavailability [8] [%] | AUC [9] [µM·h] | clearance [10] [mL/min/kg] | Vd [11] [L/kg] | pKa [12] | logP [13] |
| --- | --- | --- | --- | --- | --- | --- | --- | --- | --- | --- | --- | --- | --- | --- |
| CCCS(=O)(=O)Nc1ccc(F)c(NC(=O)Nc2ncnc3[nH]nc(OC)c23)c1F | 1.8 | 1.6 | 49 (≈ 111 µM) | 2.6 | – | – | – | – | – | – | – | – | – | – |
| CCCS(=O)(=O)Nc1ccc(F)c(NC(=O)c2cccc3c(N)ncnc23)c1Cl | – | 0.54 | – | – | 7.7 | – | – | – | – | – | – | – | – | – |
| CCCS(=O)(=O)Nc1ccc(F)c(NC(=O)c2cccc3c(N)ncnc23)c1F | 4.5 | 1.8 | > 1000 | – | 9.5 | 290 | 1 (≈ 2.37 µM) | 0.015 | 71 | 331 | 2.5 | 0.4 | 4.5 | 2.9 |
| CCCS(=O)(=O)Nc1ccc(Cl)c(NC(=O)c2cccc3c(N)ncnc23)c1F | – | 0.59 | – | – | 9.5 | – | – | – | – | – | – | – | – | – |

From ChEMBL document CHEMBL2046386, “Potent and selective aminopyrimidine-based B-Raf inhibitors with favorable physicochemical and pharmacokinetic properties” (J Med Chem, 2012)
